Assay results: patent US10167346B2, “Compositions and methods for making alpha-(1,2)-branched alpha-(1,6) oligodextrans” (TATE & LYLE INGREDIENTS FRANCE SAS, priority 2009, dated 2019)

System: Caenorhabditis elegans
Assay: lipid content in the in vivo model Caenorhabditis elegans
Conditions: positive control, concentration not given
Description: Oligodextrans according to the present invention were evaluated for their effect on lipid content using the in vivo model Caenorhabditis elegans. The substrates evaluated were TLD-1000 (unbranched 1 kDa dextran) and TLD-1030 (1 kDa dextran+32% α-1,2). […] A negative control (DMSO) and positive control (Orlistat) were also included. Each substrate was assayed four times with a total of 120 worms per substrate and concentration.

Compound: CCCCCCCCCCC[C@@H](C[C@@H]1OC(=O)[C@H]1CCCCCC)OC(=O)[C@H](CC(C)C)NC=O [Orlistat]
- reduction in lipid content: > 40%
